Test results published in PubChem BioAssay (NCI).
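The concentration for 50% growth inhibition is given as GI50. The concentration for full growth arrest is given as TGI.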

How the values were obtained:
Assay in all cases: inhibition of tumour cell growth, NCI panel, 384-well format
[1] = test system: HOP-62 NSCLC
[2] = test system: NCI-H522 lung
[3] = test system: COLO 205 colon
[4] = test system: M14 melanoma
[5] = test system: ACHN renal
[6] = test system: HCT-116 colon
[7] = test system: OVCAR-5 ovarian
[8] = test system: SF-539 CNS
[9] = test system: MCF7 breast
[10] = test system: MALME-3M melanoma
[11] = test system: SNB-75 CNS
[12] = test system: SN12C renal
[13] = test system: UO-31 renal
[14] = test system: 786-0 renal
[15] = test system: BT-549 breast
[16] = test system: OVCAR-3 ovarian
[17] = test system: PC-3 prostate
[18] = test system: SK-MEL-28 melanoma
[19] = test system: UACC-257 melanoma
[20] = test system: RPMI-8226 leukemia
[21] = test system: NCI-H460 NSCLC
[22] = test system: SNB-19 CNS
[23] = test system: EKVX NSCLC
[24] = test system: RXF 393 renal
[25] = test system: DU-145 prostate
[26] = test system: SF-295 CNS
[27] = test system: SR leukemia
[28] = test system: KM12 colon
[29] = test system: HS 578T breast
[30] = test system: U251 glioblastoma
[31] = test system: A498 renal
[32] = test system: A549 NSCLC
[33] = test system: CCRF-CEM leukemia
[34] = test system: MOLT-4 leukemia
[35] = test system: HOP-92 NSCLC
[36] = test system: HT29 colon
[37] = test system: HCT-15 colon
[38] = test system: K-562 leukemia
[39] = test system: SK-MEL-2 melanoma
[40] = test system: T-47D breast
[41] = test system: NCI-H23 lung
[42] = test system: SK-OV-3 ovarian
[43] = test system: MDA-MB-468 breast
[44] = test system: SF-268 CNS
[45] = test system: NCI-H322M lung
[46] = test system: HL-60(TB) leukemia
[47] = test system: NCI-H226 lung
[48] = test system: OVCAR-4 ovarian
[49] = test system: SK-MEL-5 melanoma
[50] = test system: NCI/ADR-RES ovarian
[51] = test system: HCC-2998 colon
[52] = test system: UACC-62 melanoma
[53] = test system: LOX IMVI melanoma
[54] = test system: IGROV1 ovarian
[55] = test system: CAKI-1 renal
[56] = test system: SW-620 colon
[57] = test system: MDA-MB-231 breast
[58] = test system: MDA-MB-435 melanoma

For COc1c(C)cnc(Cn2cnc3c(Cl)nc(N)nc32)c1C, the GI50 [1] was 0.112 µM, the TGI [1] was 1.15 µM and the GI50 [2] was 0.0617 µM. For the same compound, the TGI [2] was 0.313 µM, the GI50 [3] was 0.0286 µM and the TGI [3] was 0.0981 µM. It also gave a GI50 [4] of 0.287 µM, a TGI [4] of 18.1 µM and a GI50 [5] of 0.163 µM. For the same compound, the TGI [5] was 38 µM, the GI50 [6] was 0.194 µM and the TGI [6] was greater than 100 µM. The GI50 [7] was 0.264 µM, the TGI [7] was greater than 100 µM and the GI50 [8] was 0.0972 µM. The TGI [8] was 0.389 µM, the GI50 [9] was 0.0512 µM and the TGI [9] was greater than 100 µM. For the same compound, the GI50 [10] was 0.189 µM, the TGI [10] was 0.438 µM and the GI50 [11] was 0.357 µM. It also gave a TGI [11] of 2.08 µM, a GI50 [12] of 0.143 µM and a TGI [12] of 0.488 µM. For the same compound, the GI50 [13] was 0.0745 µM, the TGI [13] was greater than 100 µM and the GI50 [14] was 0.0894 µM. For the same compound, the TGI [14] was 2.78 µM, the GI50 [15] was 0.0508 µM and the TGI [15] was 0.269 µM. The GI50 [16] was 0.165 µM, the TGI [16] was 13.8 µM and the GI50 [17] was 0.137 µM. For the same compound, the TGI [17] was 0.664 µM, the GI50 [18] was 0.388 µM and the TGI [18] was 16.2 µM. The GI50 [19] was 0.651 µM, the TGI [19] was 34.6 µM and the GI50 [20] was 0.0715 µM. For the same compound, the TGI [20] was 0.296 µM, the GI50 [21] was 0.034 µM and the TGI [21] was 0.123 µM. The GI50 [22] was 0.262 µM, the TGI [22] was 5.62 µM and the GI50 [23] was 0.319 µM. The TGI [23] was 5.03 µM, the GI50 [24] was 0.692 µM and the TGI [24] was 7.52 µM. It also gave a GI50 [25] of 0.0407 µM, a TGI [25] of 1.41 µM and a GI50 [26] of 0.134 µM. For the same compound, the TGI [26] was 0.654 µM, the GI50 [27] was 0.0163 µM and the TGI [27] was 0.0311 µM. The GI50 [28] was 0.0523 µM, the TGI [28] was 14 µM and the GI50 [29] was 0.307 µM. It also gave a TGI [29] of 1.41 µM, a GI50 [30] of 0.0473 µM and a TGI [30] of 1.3 µM. It also gave a GI50 [31] of 0.381 µM, a TGI [31] greater than 100 µM and a GI50 [32] of 0.0739 µM. For the same compound, the TGI [32] was greater than 100 µM, the GI50 [33] was 0.0369 µM and the TGI [33] was 0.43 µM. For the same compound, the GI50 [34] was 0.0362 µM, the TGI [34] was 0.123 µM and the GI50 [35] was 0.241 µM. The TGI [35] was 0.737 µM, the GI50 [36] was 0.0615 µM and the TGI [36] was greater than 100 µM. The GI50 [37] was 0.0596 µM, the TGI [37] was 13.1 µM and the GI50 [38] was 0.0558 µM. For the same compound, the TGI [38] was 0.621 µM, the GI50 [39] was 0.482 µM and the TGI [39] was 0.783 µM. The GI50 [40] was 0.339 µM, the TGI [40] was 14.8 µM and the GI50 [41] was 0.149 µM. The TGI [41] was 0.5 µM, the GI50 [42] was 0.264 µM and the TGI [42] was 5 µM. It also gave a GI50 [43] of 0.0622 µM, a TGI [43] of 0.276 µM and a GI50 [44] of 0.133 µM. It also gave a TGI [44] of 23.8 µM, a GI50 [45] of 0.167 µM and a TGI [45] of 80.1 µM. For the same compound, the GI50 [46] was 0.0522 µM, the TGI [46] was 0.172 µM and the GI50 [47] was 0.245 µM. The TGI [47] was greater than 100 µM, the GI50 [48] was 0.286 µM and the TGI [48] was 27.4 µM. For the same compound, the GI50 [49] was 0.0596 µM, the TGI [49] was 16 µM and the GI50 [50] was 0.177 µM. For the same compound, the TGI [50] was 0.498 µM, the GI50 [51] was 0.0923 µM and the TGI [51] was 0.438 µM. It also gave a GI50 [52] of 0.145 µM, a TGI [52] of 0.711 µM and a GI50 [53] of 0.115 µM. It also gave a TGI [53] of 0.245 µM, a GI50 [54] of 0.0559 µM and a TGI [54] of 0.626 µM. It also gave a GI50 [55] of 0.47 µM, a TGI [55] of 2.87 µM and a GI50 [56] of 0.0787 µM. The TGI [56] was 5.03 µM, the GI50 [57] was 0.272 µM and the TGI [57] was 0.927 µM. The GI50 [58] was 0.154 µM and the TGI [58] was 53.7 µM.
